In patent US7776873B2, “Method for treating damage to gastric mucosa” (Yuhan Corporation, priority 2005, dated 2010):

How the values were obtained:
[1] = system: human gastric epithelial (AGS) cells infected with H. pylori (ATCC 43504); test: Incidence of H. pylori-induced cell death (MTT assay-1); assay type: cell-based; conditions: FIG. 1
Description: In order to determine cytoprotective properties of revaprazan against H. pylori infection, gastric mucosal cells were pretreated with revaprazan and rebamipide prior to H. pylori infection, and the incidence of cell death was measured. Rebamipide, known to have cytoprotective properties, was used as a control drug.
The human gastric epithelial (AGS, KCLB 21739) cells were seeded onto 96-well plate at 5×10^4 cells/ml and cultured in RPMI 1640 (Gibco BRL, Grand Island, N.Y., U.S.A.), supplemented with 100 units/mL penicillin, 100 ug/mL streptomycin, and 10% FBS (Fetal Bovine Serum). Revaprazan and rebamipide, dissolved in sterilized water, were added to AGS cells to reach a final concentration of 50 uM and the cells were incubated at 37° C. for 16 hours. To remove RPMI 1640 media, the plate was centrifuged at 24° C., 3000 rpm for 5 minutes and washed three times with PBS (137 mM NaCl, 2.7 mM KCl, 10 mM Na2HPO4, and 2 mM KH2PO4). For inoculation, H. pylori (ATCC 43504) cultures were resuspended in PBS and cocultured with AGS cells at a final concentration of 5×10^8 CFU/ml. After 48 hours of incubation at 37° C., the culture was centrifuged at 24° C., 3000 rpm for 5 minutes to remove the culture medium, i.e., RPMI 1640, and then total viable cell numbers were assessed by MTT (3-[4,5-dimethylthiazol-2-yl]-2,5-diphenyl tetrazolim bromide) assay method. 1 mg/ml of an MTT solution prepared by dissolving MTT (Amresco, Ohio, U.S.A.) in PBS (137 mM NaCl, 2.7 mM KCl, 10 mM Na2HPO4, and 2 mM KH2PO4) was added to each well (50 μl/well), followed by incubation at 37° C. for 4 hours. The supernatant was then removed by centrifugation at 24° C., 3000 rpm for 5 minutes and the formazan grains formed by the viable cells were dissolved in 99.5% dimethyl sulfoxide (DMSO) (Kanto, Tokyo, Japan) (50 μl/well), and the optical intensity was measured at 540 nm using an ELISA reader (TECAN, Maennedorf, Switzerland).

[2] = system: indomethacin-induced gastric mucosal lesions; test: Preventive effect on in vivo indomethacin-induced gastric injury; set-up: species or system Sprague-Dawley male rats; conditions: rats, 10 mg/kg via oro-gastric tube prior to indomethacin 40 mg/kg for 12 hrs, FIG. 3A
Description: (§1) Six-week old specific-pathogen-free (SPF) Sprague-Dawley male rats (Charles River, Tokyo, Japan) were used for experiments. The rats were fed a sterilized commercial pellet diet (Biogenomics Co., Seoul, Korea), given sterile water ad libitum, and housed in air-conditioned biohazard room with a 12-h light:12-h dark cycle. The rats were divided into four groups; indomethacin-only treatment group, revaprazan-indomethacin treatment group, ethanol-only treatment group and revaprazan-ethanol treatment group. The rats were food-deprived 24 hours, and then administered with 10 mg/kg revaprazan suspended in 0.5% CMC (carboxymethylcellulose) via oro-gastric tube prior to exposure to either indomethacin (40 mg/kg for 12 hrs) or absolute ethanol (6 ml/kg for 1 hr). The stomachs of the rats belonging to the groups treated with indomethacin were excised and the degree of gastric mucosal lesions was observed (see FIG. 3A). Referring to FIG. 3A, in the indomethacin-only treatment group, increased hemorrhagic lesions in gastric mucosa were observed visually. […] Also, the stomachs of the rats belonging to the ethanol treatment groups were excised and the degree of gastric mucosal lesions was observed (see FIG. 3B).

[3] = system: VEGF (Vascular Endothelial Growth Factor); test: Expression level of VEGF in sulindac-treated cells (RT-PCR); assay type: cell-based, rat; conditions: RGM-1 cells, revaprazan 25 uM (rebamipide 50 uM) 16 hours, then sulindac 100 uM 8 hours, FIG. 6
Description: In order to evaluate cytoprotective effect of revaprazan, 100 μM of sulindac belonging to NSAIDs was added to the rat cells, and the expression levels of pro-angiogenic growth factors, VEGF (Vascular Endothelial Growth Factor), interleukin-8 (IL-8), and COX-2 (cyclooxygenase-2) were measured. Rebamipide (50 μM), known to have cytoprotective properties, was used as a control drug and revaprazan (25 μM) was used as a test drug. The rat gastric mucosal (RGM-1, RIKEN cell bank, Japan) cells were seeded in culture dishes at 2×10^6 cells/100 mm^2 and cultured in RPMI 1640 (Gibco BRL, Grand Island, N.Y., U.S.A.), supplemented with 100 units/mL penicillin, 100 ug/mL streptomycin, and 10% FBS (Fetal Bovine Serum). […] The culture media were removed and the cells were washed three times with PBS (137 mM NaCl, 2.7 mM KCl, 10 mM Na2HPO4, and 2 mM KH2PO4). A solution of sulindac in DMSO was added to the cells to reach a final concentration of 100 uM and the cells were cultured at 37° C. for 8 hours. The cultured cells were collected by centrifugation at 23° C. at 3000 rpm for 3 minutes, and the total RNA was isolated from the cells using the TRIzol reagent (Life technologies, Milan, Italy). Sterilized RNase-free water was added to 2 μg of the total RNA and 1 μl of 10 pmol/λ oligo dT to obtain reaction solutions with a volume of 34 μl. […]

[4] = system: ethanol-induced gastric mucosal lesions; test: Preventive effect on in vivo ethanol-induced gastric injury; set-up: species or system Sprague-Dawley male rats; conditions: rats, 10 mg/kg via oro-gastric tube prior to absolute ethanol 6 ml/kg for 1 hr, FIG. 3B
Description: as §1

Cc1nc(Nc2ccc(F)cc2)nc(N2CCc3ccccc3C2C)c1C (centres unmarked) [revaprazan, 5,6-dimethyl-2-(4-fluorophenylamino)-4-(1-methyl-1,2,3,4-tetrahydroisoquinolin-2-yl)pyrimidine]
cytoprotective effect against H. pylori-induced cytotoxicity compared with rebamipide ([1]; 50 uM each): equal to or greater than rebamipide
gastric mucosal cytotoxicity by H. pylori infection ([1]; 50 uM pretreatment for 16 hours, then 48-hour H. pylori infection): significantly reduced
indomethacin-induced gastric injury [2]: completely inhibited
expression level of VEGF versus rebamipide-sulindac treatment group [3]: much higher
ethanol-induced gastric injury [4]: completely inhibited
